This is an account of results in US10104891B2 (priority 2014, dated 2018).

Common to all, as to assay type: in vivo
Assay [1] has as its system Pseudoperonospora cubensis. Briefly: Test 2: control effect against cucumber downy mildew. The following applies: control value vs untreated section; for pest or weed control at 4 µg/mL: Pseudoperonospora cubensis, 120 h. As to the method:
(§1) A 10% wettable powder created according to the Pharmaceutical Formulation Example 1 was diluted with a Tween20 solution prepared to a concentration of 1/5000, then the compound of formula [1] was prepared to a concentration of 4 ppm. Further, the compound of formula [1] in Test 4 was adjusted to a concentration of 1,000 ppm.
<Test 2 Test of Control Effect Against Cucumber Downy Mildew>
(§2) Test suspension was applied to cucumber at the 2 leaf stage (species: Sagami hanjiro) in an amount of 20 ml per seedling. One day after application, zoospore suspension of Pseudoperonospora cubensis adjusted to a concentration of 1.0×10^4 units/ml was misted/inoculated, and the seedlings were incubated in a moist chamber adjusted to 22° C. for 16 hr. Then, the onset of the disease was induced in the chamber, and the lesion area rate on the leaves 5 days after inoculation was investigated to compute the control value using the formula below. control value={1−onset area rate of the leaves that were applied the test agent/onset area rate of untreated leaves}×100 Computational formula of the control value: […]

The next assay concerns Phytophthora infestans. In words: whole plant or invertebrate. The note with it: for control value (Test 1): tomato late blight, control value vs untreated section; for pest or weed control at 4 µg/mL: Phytophthora infestans, in Solanum lycopersicum, 96 h, read-out: control value (Test 1).
For another assay, the system named is Plasmopara viticola. In words: Test 3: control effect against grape downy mildew. The following applies: control value vs untreated section; for pest or weed control at 4 µg/mL: Plasmopara viticola, 120 h. As to the method: as §1
<Test 3 Test of Control Effect Against Grape Downy Mildew>
as §2, with “grape seedling” for “cucumber at the 2 leaf stage”, “Neomuscat)” for “Sagami hanjiro)”, “Plasmopara viticola” for “Pseudoperonospora cubensis”

Regarding `CS(=O)(=O)Oc1ccc(F)c2c1COC(c1csc(C3CCN(C(=O)Cn4nc(C(F)(F)F)cc4C(F)(F)F)CC3)n1)OC2` (stereo not drawn) [Compound 1-87], the “control value (Test 2)” value in assay [1] was found to be 100. For the same molecule, the “control value (Test 1)” value in the assay on Phytophthora infestans is 100. In addition, the “control value (Test 3)” value with Plasmopara viticola is recorded as 100.

On to `CC1OC(c2csc(C3CCN(C(=O)Cn4nc(C(F)(F)F)cc4C(F)(F)F)CC3)n2)OCc2ccccc21` (stereo not drawn) [Compound 1-88], for which, in assay [1], the “control value (Test 2)” value was found to be 100. Also, in the assay with Phytophthora infestans, the “control value (Test 1)” value is listed as 100. Moreover, the “control value (Test 3)” value in the assay on Plasmopara viticola is 100.

`O=C(Cn1nc(C(F)(F)F)cc1C(F)(F)F)N1CCC(c2nc(C3OCc4cc5ccccc5cc4CO3)cs2)CC1` [Compound 1-89]: the “control value (Test 2)” value in assay [1] is on record as 100. The “control value (Test 1)” value with Phytophthora infestans stood at 80. For the same molecule, the “control value (Test 3)” value in the assay with Plasmopara viticola came to 100.

Take `CC(C)(C)c1ccc2c(c1)COC(c1csc(C3CCN(C(=O)Cn4nc(C(F)(F)F)cc4C(F)(F)F)CC3)n1)OC2` (stereo not drawn) [Compound 1-92]: in assay [1], the “control value (Test 2)” value came to 90. In addition, the “control value (Test 1)” value with Phytophthora infestans was 100. Moreover, the “control value (Test 3)” value in the assay with Plasmopara viticola was determined as 90.

`O=C(Cn1nc(C(F)(F)F)cc1C(F)(F)F)N1CCC(c2nc(C3OCc4cccc(Cl)c4CO3)cs2)CC1` (stereo not drawn) [Compound 1-93]: in assay [1], the “control value (Test 2)” value is listed as 100. Further, in the assay on Phytophthora infestans, the “control value (Test 1)” value came to 100. In addition, in the assay on Plasmopara viticola, the “control value (Test 3)” value was determined as 100.

For the molecule `Cc1cc(C(F)(F)F)nn1CC(=O)N1CCC(c2nc(C3OCc4cccc(OC(F)F)c4CO3)cs2)CC1` (stereo not drawn) [Compound 1-94], the “control value (Test 2)” value in assay [1] is recorded as 100. Further, the “control value (Test 1)” value in the assay on Phytophthora infestans turned out to be 100. Also, in the assay with Plasmopara viticola, the “control value (Test 3)” value was 100.

On to `Cc1cc(C(F)(F)F)nn1CC(=O)N1CCC(c2nc(C3OCc4ccc(Br)cc4CO3)cs2)CC1` (stereo not drawn) [Compound 1-98], for which, in assay [1], the “control value (Test 2)” value is given as 100. Also, the “control value (Test 1)” value in the assay with Phytophthora infestans is 100. The “control value (Test 3)” value in the assay with Plasmopara viticola came out at 100.

Regarding `O=C(Cn1nc(C(F)F)cc1C(F)F)N1CCC(c2nc(C3OCc4ccc(Br)cc4CO3)cs2)CC1` (stereo not drawn) [Compound 1-99], in assay [1], the “control value (Test 2)” value is recorded as 100. The “control value (Test 1)” value in the assay with Phytophthora infestans came to 100. For the same molecule, the “control value (Test 3)” value in the assay with Plasmopara viticola is given as 100.

With `Cc1cc(C(F)(F)F)nn1CC(=O)N1CCC(c2nc(C3OCc4c(I)ccc(OS(C)(=O)=O)c4CO3)cs2)CC1` (stereo not drawn) [Compound 1-101], the “control value (Test 2)” value in assay [1] was determined as 100. Moreover, in the assay on Phytophthora infestans, the “control value (Test 1)” value is given as 100. In addition, the “control value (Test 3)” value with Plasmopara viticola is 100.

With `Cc1cc(C(F)(F)F)nn1CC(=O)N1CCC(c2nc(C3OCc4c(Cl)ccc(OS(C)(=O)=O)c4CO3)cs2)CC1` (stereo not drawn) [Compound 1-102], in assay [1], the “control value (Test 2)” value amounted to 100. Besides, the “control value (Test 1)” value with Phytophthora infestans was determined as 100. Besides, the “control value (Test 3)” value in the assay with Plasmopara viticola is on record as 100.

Take `Cc1cc(C(F)(F)F)nn1CC(=O)N1CCC(c2nc(C3OCc4c(OS(C)(=O)=O)ccc(OS(C)(=O)=O)c4CO3)cs2)CC1` [Compound 1-103]: the “control value (Test 2)” value in assay [1] was found to be 100. For the same molecule, the “control value (Test 1)” value with Phytophthora infestans is recorded as 100. The “control value (Test 3)” value in the assay with Plasmopara viticola is on record as 100.

For the molecule `Cc1cc(C(F)(F)F)nn1CC(=O)N1CCC(c2nc(C3OCc4cccc(C#N)c4CO3)cs2)CC1` (stereo not drawn) [Compound 1-104], the “control value (Test 2)” value in assay [1] was determined as 100. In the assay with Phytophthora infestans, the “control value (Test 1)” value was 100. Also, the “control value (Test 3)” value in the assay on Plasmopara viticola came out at 100.

For `Cc1cc(C)n(CC(=O)N2CCC(c3nc(C4OCc5cccc(OS(C)(=O)=O)c5CO4)cs3)CC2)n1` (stereo not drawn) [Compound 1-105], in assay [1], the “control value (Test 2)” value is recorded as 100. In addition, the “control value (Test 1)” value with Phytophthora infestans is recorded as 100. In the assay with Plasmopara viticola, the “control value (Test 3)” value is 100.

`Cc1cc(C(F)(F)F)nn1CC(=S)N1CCC(c2nc(C3OCc4cccc(OS(C)(=O)=O)c4CO3)cs2)CC1` (stereo not drawn) [Compound 1-106]: the “control value (Test 2)” value in assay [1] came out at 100. Moreover, in the assay on Phytophthora infestans, the “control value (Test 1)” value came out at 100. The “control value (Test 3)” value in the assay on Plasmopara viticola amounted to 100.

On to `Cc1cc(C(F)(F)F)nn1CC(=S)N1CCC(c2nc(C3OCc4c(F)ccc(OS(C)(=O)=O)c4CO3)cs2)CC1` (stereo not drawn) [Compound 1-107], for which, in assay [1], the “control value (Test 2)” value is recorded as 100. Also, in the assay with Phytophthora infestans, the “control value (Test 1)” value was 100. Also, the “control value (Test 3)” value in the assay with Plasmopara viticola was determined as 100.

As to `COc1ccc(OS(C)(=O)=O)c2c1COC(c1csc(C3CCN(C(=O)Cn4nc(C(F)(F)F)cc4Cl)CC3)n1)OC2` (stereo not drawn) [Compound 1-108], in assay [1], the “control value (Test 2)” value was found to be 100. In addition, in the assay on Phytophthora infestans, the “control value (Test 1)” value is 100. The “control value (Test 3)” value with Plasmopara viticola was determined as 100.

With `COc1ccc(OS(C)(=O)=O)c2c1COC(c1csc(C3CCN(C(=O)Cn4nc(Cl)cc4Cl)CC3)n1)OC2` (stereo not drawn) [Compound 1-109, 4-[4-(6-methoxy-9-methylsulfonyloxy-1,5-dihydro-3H-2,4-benzodioxepin-3-yl)-2-thiazolyl]-1-[2-(3,5-dichloro-1H-pyrazole-1-yl)acetyl]piperidine], the pest or weed control at 4 µg/mL (in assay [1]; in the assay with Phytophthora infestans; with Plasmopara viticola) was 100% throughout.

For `COc1ccc(Cl)c2c1COC(c1csc(C3CCN(C(=O)Cn4nc(C(F)(F)F)cc4C(F)(F)F)CC3)n1)OC2` (stereo not drawn) [Compound 1-110], the “control value (Test 2)” value in assay [1] worked out at 100. Moreover, the “control value (Test 1)” value in the assay with Phytophthora infestans was determined as 100. Moreover, the “control value (Test 3)” value in the assay with Plasmopara viticola is 100.

For `O=C(Cn1nc(C(F)(F)F)cc1C(F)(F)F)N1CCC(c2nc(C3OCc4cccc(Br)c4CO3)cs2)CC1` (stereo not drawn) [Compound 1-111], the “control value (Test 2)” value in assay [1] came out at 100. Moreover, in the assay on Phytophthora infestans, the “control value (Test 1)” value is 100. In the assay with Plasmopara viticola, the “control value (Test 3)” value was found to be 100.

For `COc1ccc(Cl)c2c1COC(c1csc(C3CCN(C(=O)Cn4nc(C(F)F)cc4C(F)F)CC3)n1)OC2` (stereo not drawn) [Compound 1-112], the “control value (Test 2)” value in assay [1] was found to be 100. Also, in the assay on Phytophthora infestans, the “control value (Test 1)” value is reported as 100. Moreover, in the assay with Plasmopara viticola, the “control value (Test 3)” value was 100.

`O=C(Cn1nc(C(F)(F)F)cc1C(F)(F)F)N1CCC(c2nc(C3OCc4cccc([N+](=O)[O-])c4CO3)cs2)CC1` (stereo not drawn) [Compound 1-114]: the “control value (Test 2)” value in assay [1] is listed as 100. Moreover, the “control value (Test 1)” value with Phytophthora infestans is on record as 100. In the assay on Plasmopara viticola, the “control value (Test 3)” value amounted to 100.

For `COc1ccc(OS(C)(=O)=O)c2c1COC(c1csc(C3CCN(C(=O)Cn4nc(C)cc4C)CC3)n1)OC2` (stereo not drawn) [Compound 1-115, 4-[4-(6-methoxy-9-methylsulfonyloxy-1,5-dihydro-3H-2,4-benzodioxepin-3-yl)-2-thiazolyl]-1-[2-[3,5-dimethyl-1H-pyrazole-1-yl]acetyl]piperidine], the pest or weed control at 4 µg/mL (in assay [1]; in the assay with Phytophthora infestans; in the assay with Plasmopara viticola) was 100% each time.

Turning to `CS(=O)(=O)Oc1ccc(Cl)c2c1COC(c1csc(C3CCN(C(=O)Cn4nc(C(F)F)cc4C(F)F)CC3)n1)OC2` (stereo not drawn) [Compound 1-116], in assay [1], the “control value (Test 2)” value is 100. Further, in the assay on Phytophthora infestans, the “control value (Test 1)” value is 100. Further, the “control value (Test 3)” value in the assay on Plasmopara viticola was determined as 100.

On to `COc1ccc(OS(C)(=O)=O)c2c1COC(c1csc(C3CCN(C(=O)Cn4nc(C(F)(F)F)cc4C(F)(F)F)CC3)n1)OC2` (stereo not drawn) [Compound 1-117], for which the “control value (Test 2)” value in assay [1] was 100. The “control value (Test 1)” value in the assay with Phytophthora infestans is reported as 100. For the same molecule, in the assay on Plasmopara viticola, the “control value (Test 3)” value is recorded as 100.

With `CS(=O)(=O)Oc1ccc(Cl)c2c1COC(c1csc(C3CCN(C(=O)Cn4nc(C(F)(F)F)cc4C(F)(F)F)CC3)n1)OC2` (stereo not drawn) [Compound 1-118], the “control value (Test 2)” value in assay [1] is 100. In the assay with Phytophthora infestans, the “control value (Test 1)” value came to 100. Moreover, the “control value (Test 3)” value in the assay on Plasmopara viticola came out at 100.

Consider `CS(=O)(=O)Oc1cccc2c1COC(c1csc(C3CCN(C(=O)Cn4nc(C(Cl)Cl)cc4C(Cl)Cl)CC3)n1)OC2` (stereo not drawn) [Compound 1-119, 4-[4-(6-methylsulfonyloxy-1,5-dihydro-3H-2,4-benzodioxepin-3-yl)-2-thiazolyl]-1-[2-[3,5-bis(dichloromethyl)-1H-pyrazole-1-yl]acetyl]piperidine], for which the pest or weed control at 4 µg/mL (in assay [1]; in the assay on Phytophthora infestans; with Plasmopara viticola) was 100% throughout.

For `Cc1cc(C)n(CC(=O)N2CCC(c3nc(C4OCc5c(F)ccc(OS(C)(=O)=O)c5CO4)cs3)CC2)n1` (stereo not drawn) [Compound 1-120], the “control value (Test 2)” value in assay [1] is on record as 100. Also, the “control value (Test 1)” value with Phytophthora infestans amounted to 100. In addition, the “control value (Test 3)” value in the assay with Plasmopara viticola turned out to be 100.

Take `Cc1cc(OS(C)(=O)=O)c2c(c1C)COC(c1csc(C3CCN(C(=O)Cn4nc(C(F)F)cc4C(F)F)CC3)n1)OC2` (stereo not drawn) [Compound 1-121]: in assay [1], the “control value (Test 2)” value is on record as 100. The “control value (Test 1)” value in the assay with Phytophthora infestans was 100. The “control value (Test 3)” value with Plasmopara viticola was determined as 100.

`Cc1cc(OS(C)(=O)=O)c2c(c1C)COC(c1csc(C3CCN(C(=O)Cn4nc(C(F)(F)F)cc4C(F)(F)F)CC3)n1)OC2` (stereo not drawn) [Compound 1-122]: the “control value (Test 2)” value in assay [1] is 100. In the assay with Phytophthora infestans, the “control value (Test 1)” value is listed as 100. Also, the “control value (Test 3)” value in the assay with Plasmopara viticola came out at 100.
